Reference: patent US11547761B1, “Antibody adjuvant conjugates” (The Board of Trustees of the Leland Stanford Junior …, priority 2016, dated 2023)

Tests used:
[1] = test system: human APCs (myeloid cells); test: APC-tumor co-culture / myeloid cell stimulation, surface markers by flow cytometry; format: cell-based; conditions: 18 hours of stimulation; compared with the corresponding unconjugated antibody unless the value names another comparator
Description: Human antigen presenting cells (APCs) were negatively selected from human peripheral blood mononuclear cells obtained from healthy blood donors (Stanford Blood Center) by density gradient centrifugation using a RosetteSep Human Monocyte Enrichment Cocktail (Stem Cell Technologies) containing monoclonal antibodies against CD2, CD3, CD8, CD19, CD56, CD66b and CD235a. Immature APCs were subsequently purified to >97% purity via negative selection using an EasySep Human Monocyte Enrichment Kit without CD16 depletion containing monoclonal antibodies against CD2, CD3, CD19, CD20, CD56, CD66b, CD123 and CD235a.
Tumor cells were resuspended in PBS with 0.1% fetal bovine serum (FBS) at 1 to 10×10^6 cells/mL. Cells were subsequently incubated with 2 μM CFSE to yield a final concentration of 1 μM. The reaction was ended after 2 minutes via the addition of 10 mL complete medium with 10% FBS and washed once with complete medium. Cells were either fixed in 2% paraformaldehyde and washed three times with PBS or left unfixed prior to freezing the cells in 10% DMSO, 20% FBS and 70% medium.
2×10^5 APCs were incubated with or without 6.5×10^5 autologous or allogeneic CFSE-labeled tumor cells in 96-well plates (Corning) containing IMDM medium (Gibco) supplemented with 10% fetal bovine serum, 100 U/mL penicillin, 100 μg/mL streptomycin, 2 mM L-glutamine, sodium pyruvate, non-essential amino acids, 50 μM 2-ME and, where indicated, various concentrations of anti-tumor antibody and the indicated adjuvants. Cells and cell-free supernatants were analyzed after 18 hours via flow cytometry.
Human antigen presenting cells (APCs) were negatively selected from human peripheral blood mononuclear cells obtained from healthy blood donors (Stanford Blood Center) by density gradient centrifugation using a RosetteSep Human Monocyte Enrichment Cocktail (Stem Cell Technologies) containing monoclonal antibodies against […]. Immature APCs were subsequently purified to >97% purity via negative selection using an EasySep Human Monocyte Enrichment Kit without CD16 depletion containing monoclonal antibodies against CD14, CD16, CD40, CD86, CD123, and HLA-DR.
2×10^5 APCs were incubated with or without 6.5×10^5 autologous or allogeneic CFSE-labeled tumor cells in 96-well plates (Corning) containing IMDM medium (Gibco) supplemented with 10% fetal bovine serum, 100 U/mL penicillin, 100 μg/mL streptomycin, 2 mM L-glutamine, sodium pyruvate, non-essential amino acids, 50 μM 2-ME and, where indicated, various concentrations of antibody. Cells and cell-free supernatants were analyzed after 18 hours via flow cytometry.
2×10^5 APCs were incubated with or without 6.5×10^5 allogeneic CFSE-labeled tumor cells in 96-well plates (Corning) containing IMDM medium (Gibco) supplemented with 10% fetal bovine serum, 100 U/mL penicillin, 100 μg/mL streptomycin, 2 mM L-glutamine, sodium pyruvate, non-essential amino acids and, where indicated, various concentrations of unconjugated CD20 antibody, and immunoconjugates of the invention were prepared according to the examples above. Cells and cell-free supernatants were analyzed after 18 hours via flow cytometry or ELISA.

[2] = test system: human APCs (myeloid cells); test: Cytokine secretion from human APCs / myeloid cells (cell free supernatants); format: cell-based; conditions: 36 hours of stimulation; compared to equimolar unconjugated antibody
Experimental: After 18 hours, cell free supernatants were analyzed for cytokine secretion via cytokine bead arrays; n=3. P-values≤0.05 depicted by *, P-values≤0.01 depicted by **, P-values≤0.001 depicted by ***, P-values≤0.0001 depicted by ****.
2×10^5 APCs were incubated with or without 6.5×10^5 autologous or allogeneic CFSE-labeled tumor cells in 96-well plates (Corning) containing IMDM medium (Gibco) supplemented with 10% fetal bovine serum, 100 U/mL penicillin, 100 μg/mL streptomycin, 2 mM L-glutamine, sodium pyruvate, non-essential amino acids, 50 μM 2-ME and, where indicated, various concentrations of anti-tumor antibody and the indicated adjuvants. […]
While the expression of T cell stimulatory molecules such as CD40, CD86 and HLA-DR is necessary for effective T cell activation, APCs also influence the nature of the ensuing immune response through the secretion of cytokines. Therefore, the capacity of immunoconjugates to elicit cytokine secretion in human APCs following stimulation was investigated as described above.
The capacity of these immunoconjugates to elicit cytokine secretion in human APCs following stimulation was investigated as described in Example 3 above.
2×10^5 APCs were incubated with or without 6.5×10^5 allogeneic CFSE-labeled tumor cells in 96-well plates (Corning) containing IMDM medium (Gibco) supplemented with 10% fetal bovine serum, 100 U/mL penicillin, 100 μg/mL streptomycin, 2 mM L-glutamine, sodium pyruvate, non-essential amino acids and, where indicated, various concentrations of unconjugated CD20 antibody, and immunoconjugates of the invention were prepared according to the examples above. […]

Rituximab-Pam2CSK4 Boltbody
superior: CD16 downregulation on myeloid cells [1] | CD40 upregulation on myeloid cells [1] | CD86 upregulation on myeloid cells [1] | IL-1β secretion from myeloid cells [2] | TNFα secretion from myeloid cells [2]

Rituximab-Pam3CSK4 Boltbody
superior: CD16 downregulation on myeloid cells [1] | CD40 upregulation on myeloid cells [1] | CD86 upregulation on myeloid cells [1] | CD123 upregulation on myeloid cells [1] | IL-1β secretion from myeloid cells [2] | TNFα secretion from myeloid cells [2]
